Converted amounts (≈) assume the structure as drawn. Where only a bound is given, the exact number is not on record here.

Format in all cases: functional
Assay [1] concerns Cryptococcus neoformans. The experiment in a line: Antifungal activity against Cryptococcus neoformans ATCC 32264 by microbroth dilution method. A general note: Dilution methods test growth across graded concentrations, often in twofold steps.
For assay [2], the system named is Saccharomyces cerevisiae. The experiment in a line: Antifungal activity against Saccharomyces cerevisiae ATCC 9763 by microbroth dilution method.
Assay [3] has as its system Candida tropicalis. Briefly: Antifungal activity against Candida tropicalis C131 by micro-broth dilution method.
Assay [4] has as its system Aspergillus flavus. Briefly: Antifungal activity against Aspergillus flavus ATCC 9170 by micro-broth dilution method.
The subject of assay [5] is Candida albicans. Briefly: Antifungal activity against Candida albicans ATCC 10231 by micro-broth dilution method.
For assay [6], the system named is Aspergillus niger. The experiment in a line: Antifungal activity against Aspergillus niger ATCC 9029 by micro-broth dilution method.
Assay [7] concerns Aspergillus fumigatus. The experiment in a line: Antifungal activity against Aspergillus fumigatus ATCC 26934 by micro-broth dilution method.
The test system of assay [8] is Trichophyton mentagrophytes. Briefly: Antifungal activity against Trichophyton mentagrophytes ATCC 9972 by micro-broth dilution method.
The test system of assay [9] is Nannizzia gypsea. Briefly: Antifungal activity against Microsporum gypseum C115 by microbroth dilution method.
In assay [10] the test system is Trichophyton rubrum. The experiment in a line: Antifungal activity against Trichophyton rubrum C113 by microbroth dilution method.

Regarding `C[C@@H]1[C@H](O)[C@@H](C)/C=C/C=C/C=C/C=C/C=C/C=C/C=C/[C@H](O[C@@H]2O[C@H](C)[C@@H](O)[C@H](N)[C@@H]2O)C[C@@H]2O[C@](O)(C[C@@H](O)C[C@@H](O)[C@H](O)CC[C@@H](O)C[C@@H](O)CC(=O)O[C@H]1C)C[C@H](O)[C@H]2C(=O)O` [AMPHOTERICIN B], the MIC was determined as 0.25 µg/mL (≈ 0.271 µM) in assay [1]; 0.5 µg/mL (≈ 0.541 µM) in [2]; 0.5 µg/mL (≈ 0.541 µM) in [3]; 0.5 µg/mL (≈ 0.541 µM) in [4]; 1 µg/mL (≈ 1.08 µM) in [5]; 0.5 µg/mL (≈ 0.541 µM) in [6]. Besides, the lowest concentration to inhibit growth in assay [7] (MIC) was 0.5 µg/mL (≈ 0.541 µM).
`c1ccc(NCc2ccco2)cc1`: the MIC is 250 µg/mL (≈ 1440 µM) in assay [1]; above 250 µg/mL in [2]; 100 µg/mL (≈ 577 µM) in assay [8]; 100 µg/mL (≈ 577 µM) in [9]; 250 µg/mL (≈ 1440 µM) in [3]; 100 µg/mL (≈ 577 µM) in assay [4]. Also, the MIC in assay [5] was found to be 250 µg/mL (≈ 1440 µM); in assay [6], 100 µg/mL (≈ 577 µM); in [10] it was 100 µg/mL (≈ 577 µM); in assay [7] it was 62.5 µg/mL (≈ 361 µM).
Regarding `c1ccc(NCc2ccncc2)cc1`, the MIC in assay [1] is above 250 µg/mL; in [2] it was above 250 µg/mL; in [8], 125 µg/mL (≈ 678 µM); in assay [9], 125 µg/mL (≈ 678 µM); in assay [3], 250 µg/mL (≈ 1360 µM); in assay [4], 250 µg/mL (≈ 1360 µM). For the same compound, the MIC in assay [5] was above 250 µg/mL; in assay [6], 250 µg/mL (≈ 1360 µM); in [10], 125 µg/mL (≈ 678 µM); in assay [7] it was 250 µg/mL (≈ 1360 µM).
Turning to `Cc1ccc(NCc2cccnc2)cc1`, the MIC in [1] is above 250 µg/mL; in assay [2], above 250 µg/mL; in [8], 250 µg/mL (≈ 1260 µM); in [9], 250 µg/mL (≈ 1260 µM); in assay [3], above 250 µg/mL; in [4] it was above 250 µg/mL. Moreover, the MIC in assay [5] is above 250 µg/mL; in [6] it was above 250 µg/mL; in assay [10], 250 µg/mL (≈ 1260 µM); in [7], above 250 µg/mL.
As for `C=CCC(Nc1ccc(OC)cc1)c1ccncc1` (configuration not stated), the MIC in assay [1] is above 250 µg/mL; in assay [2], above 250 µg/mL; in assay [8] it was 125 µg/mL (≈ 491 µM); in [9], 62.5 µg/mL (≈ 246 µM); in assay [3] it was above 250 µg/mL; in [4], above 250 µg/mL. Besides, the MIC in assay [5] is above 250 µg/mL; in assay [6] it was above 250 µg/mL; in assay [10], 125 µg/mL (≈ 491 µM); in assay [7], above 250 µg/mL.
`Brc1ccc(NCc2ccco2)cc1`: the MIC in assay [1] worked out at 50 µg/mL (≈ 198 µM); in assay [2] it was 50 µg/mL (≈ 198 µM); in [8], 12.5 µg/mL (≈ 49.6 µM); in assay [9], 6.25 µg/mL (≈ 24.8 µM); in [3], 75 µg/mL (≈ 297 µM); in [4], 50 µg/mL (≈ 198 µM). In addition, the MIC in assay [5] turned out to be 62.5 µg/mL (≈ 248 µM); in assay [6] it was 62.5 µg/mL (≈ 248 µM); in [10], 3.12 µg/mL (≈ 12.4 µM); in [7], 50 µg/mL (≈ 198 µM).
As to `Clc1ccc(NCc2ccoc2)cc1`, the MIC in [1] was determined as 62.5 µg/mL (≈ 301 µM); in [2], 125 µg/mL (≈ 602 µM); in assay [8], 62.5 µg/mL (≈ 301 µM); in assay [9], 125 µg/mL (≈ 602 µM); in [3], 125 µg/mL (≈ 602 µM); in [4], 62.5 µg/mL (≈ 301 µM). Besides, the MIC came to 125 µg/mL (≈ 602 µM) in [5], 62.5 µg/mL (≈ 301 µM) in assay [6], 62.5 µg/mL (≈ 301 µM) in [10] and 62.5 µg/mL (≈ 301 µM) in assay [7].
With `C=CCC(Nc1ccccc1)c1ccoc1` (configuration not stated), the MIC was 250 µg/mL (≈ 1170 µM) in assay [1]; above 250 µg/mL in assay [2]; 62.5 µg/mL (≈ 293 µM) in assay [8]; 125 µg/mL (≈ 586 µM) in [9]; above 250 µg/mL in assay [3]; above 250 µg/mL in [4]. Besides, the MIC in assay [5] is above 250 µg/mL; in assay [6] it was above 250 µg/mL; in [10], 62.5 µg/mL (≈ 293 µM); in [7], above 250 µg/mL.
Take `Cn1cccc1CNc1ccccc1`: the MIC in assay [1] was above 250 µg/mL; in assay [2], above 250 µg/mL; in assay [8] it was 250 µg/mL (≈ 1340 µM); in assay [9], above 250 µg/mL; in assay [3], above 250 µg/mL; in assay [4] it was above 250 µg/mL. Also, the MIC in [5] was above 250 µg/mL; in [6], above 250 µg/mL; in assay [10] it was 250 µg/mL (≈ 1340 µM); in [7], above 250 µg/mL.
For the compound `c1ccc(NCc2cccs2)cc1`, the MIC in assay [1] was above 250 µg/mL; in assay [2] it was above 250 µg/mL; in assay [8], 25 µg/mL (≈ 132 µM); in assay [9], 25 µg/mL (≈ 132 µM); in assay [3], above 250 µg/mL; in assay [4], above 250 µg/mL. In addition, the MIC in assay [5] is above 250 µg/mL; in assay [6], above 250 µg/mL; in [10], 12.5 µg/mL (≈ 66 µM); in [7], above 250 µg/mL.
On to `Ic1ccc(NCc2cccnc2)cc1`, for which the MIC in assay [1] stood at 50 µg/mL (≈ 161 µM); in assay [2] it was 200 µg/mL (≈ 645 µM); in assay [8], 25 µg/mL (≈ 80.6 µM); in assay [9] it was 50 µg/mL (≈ 161 µM); in assay [3], 200 µg/mL (≈ 645 µM); in assay [4] it was 50 µg/mL (≈ 161 µM). Further, the MIC in [5] was above 250 µg/mL; in assay [6], 100 µg/mL (≈ 322 µM); in assay [10] it was 25 µg/mL (≈ 80.6 µM); in assay [7], 50 µg/mL (≈ 161 µM).
Take `O=[N+]([O-])c1cccc(NCc2cccnc2)c1`: the MIC was above 250 µg/mL in assay [1]; above 250 µg/mL in assay [2]; 25 µg/mL (≈ 109 µM) in assay [8]; 25 µg/mL (≈ 109 µM) in [9]; above 250 µg/mL in [3]; above 250 µg/mL in [4]. The MIC was above 250 µg/mL in assay [5], above 250 µg/mL in assay [6], 25 µg/mL (≈ 109 µM) in assay [10] and above 250 µg/mL in assay [7].

By MIC is commonly meant the smallest concentration in the dilution series that meets the test's criterion for growth inhibition. The low end stands for greater potency, the high end for weaker potency.
